# Paper PMC8532448, “Drug target inference by mining transcriptional data using a novel graph convolutional network framework” (Protein & Cell, 2021)
# Molecular target: Cyclophilin A (CYPA, PPIA) (Homo sapiens, UniProt P62937)
# Experiment: SPR with purified CYPA; also protein thermal shift (destabilization) and chymotrypsin-coupled PPIase inhibition
# Format: binding
# Sequence of Cyclophilin A (CYPA, PPIA) (P62937 whole entry): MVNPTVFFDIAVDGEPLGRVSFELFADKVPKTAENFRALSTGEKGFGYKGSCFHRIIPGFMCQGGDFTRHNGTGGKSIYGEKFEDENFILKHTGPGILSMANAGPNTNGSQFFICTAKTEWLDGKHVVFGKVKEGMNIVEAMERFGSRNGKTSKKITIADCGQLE
smiles,measurement,value
"Cc1c(O)cccc1C(=O)N[C@@H](CSc1ccccc1)[C@H](O)CN1C[C@H]2CCCC[C@H]2C[C@H]1C(=O)NC(C)(C)C [NFV, Nelfinavir]",Kd,940 nM
